According to paper PMC6126659, “Structural basis for light control of cell development revealed by crystal structures of a myxobacterial phytochrome” (IUCrJ, 2018):

Tests used:
Type in all cases: binding
[1] = biological target: T1, SaBphP1-PCM (PAS-GAF-PHY) (Allostigmatella aurantiaca, UniProt Q097N3, T289H); experiment: X-ray crystallography ([…] K, […] A; XFEL […] K, […] A); conditions: covalent, Cys18; dark-adapted Pr state; pH 6.2
T1 construct: gene STIAU_3396; photosensory core module PAS-GAF-PHY, residues 1-516, pET28c(+), E. coli BL21(DE3) co-expressing heme oxygenase; dimer; histidine kinase domain absent
T1 sequence (Q097N3 entry or part of it T289H): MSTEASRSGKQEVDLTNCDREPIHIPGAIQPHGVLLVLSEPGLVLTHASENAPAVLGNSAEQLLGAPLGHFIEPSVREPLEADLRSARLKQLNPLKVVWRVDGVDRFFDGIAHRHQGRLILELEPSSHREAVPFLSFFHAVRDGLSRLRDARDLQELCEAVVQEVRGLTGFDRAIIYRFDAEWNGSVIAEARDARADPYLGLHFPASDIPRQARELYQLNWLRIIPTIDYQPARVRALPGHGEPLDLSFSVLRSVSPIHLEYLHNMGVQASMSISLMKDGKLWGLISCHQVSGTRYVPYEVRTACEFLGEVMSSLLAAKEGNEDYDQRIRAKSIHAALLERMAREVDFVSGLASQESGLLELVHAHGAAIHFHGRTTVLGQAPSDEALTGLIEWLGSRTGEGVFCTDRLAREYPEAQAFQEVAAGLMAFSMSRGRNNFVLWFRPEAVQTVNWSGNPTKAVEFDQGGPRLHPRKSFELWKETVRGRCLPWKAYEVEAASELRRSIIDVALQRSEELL

[2] = biological target: T2, SaBphP1-PCM (PAS-GAF-PHY) (Allostigmatella aurantiaca, UniProt Q097N3, Y262F/T289H); experiment: UV-vis absorption spectroscopy of bilin-bound protein; conditions: covalent; dark / 700 / 750 nm illumination, room temperature
T2 construct: gene STIAU_3396; photosensory core module PAS-GAF-PHY, residues 1-516, pET28c(+), E. coli BL21(DE3) co-expressing heme oxygenase; dimer; histidine kinase domain absent
T2 sequence (Q097N3 entry or part of it Y262F/T289H): as the sequence (Q097N3 entry or part of it T289H) above, with Y262F counted along it

[3] = biological target: T3, SaBphP1-PCM (PAS-GAF-PHY) (Allostigmatella aurantiaca, UniProt Q097N3); experiment: X-ray crystallography ([…] K, […] A); conditions: covalent, Cys18; dark-adapted Pr state; pH 6.2
T3 construct: gene STIAU_3396; photosensory core module PAS-GAF-PHY, residues 1-516, pET28c(+), E. coli BL21(DE3) co-expressing heme oxygenase; dimer; histidine kinase domain absent
T3 sequence (Q097N3 entry or part of it): as the sequence (Q097N3 entry or part of it T289H) above, with H289T counted along it

[4] = biological target: T4, SaBphP1-PCM (PAS-GAF-PHY) (Allostigmatella aurantiaca, UniProt Q097N3, D208T/T289H); experiment: UV-vis absorption spectroscopy of bilin-bound protein; conditions: covalent; 740 / 700 nm illumination, room temperature
T4 construct: gene STIAU_3396; photosensory core module PAS-GAF-PHY, residues 1-516, pET28c(+), E. coli BL21(DE3) co-expressing heme oxygenase; dimer; histidine kinase domain absent
T4 sequence (Q097N3 entry or part of it D208T/T289H): as the sequence (Q097N3 entry or part of it T289H) above, with D208T counted along it

SaBphP1-CBD (PAS-GAF) = biological target: T5, SaBphP1-CBD (PAS-GAF) (Allostigmatella aurantiaca, UniProt Q097N3); experiment: X-ray crystallography ([…] K, […] A); conditions: covalent, Cys18; dark-adapted Pr state; pH 8.5
T5 construct: gene STIAU_3396; crystallographic dimer
T5 sequence (Q097N3 entry or part of it): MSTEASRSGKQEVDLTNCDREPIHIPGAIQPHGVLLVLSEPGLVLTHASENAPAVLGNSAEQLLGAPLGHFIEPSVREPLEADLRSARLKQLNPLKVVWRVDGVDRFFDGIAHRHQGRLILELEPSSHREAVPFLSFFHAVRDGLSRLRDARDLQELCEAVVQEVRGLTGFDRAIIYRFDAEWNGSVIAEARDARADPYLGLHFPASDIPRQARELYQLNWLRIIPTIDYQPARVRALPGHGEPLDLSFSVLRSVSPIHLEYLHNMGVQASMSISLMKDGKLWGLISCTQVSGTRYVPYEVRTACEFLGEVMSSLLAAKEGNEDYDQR

In the case of `C=CC1=C(C)C(=Cc2[nH]c(C=C3N=C(C=C4NC(=O)C(C)=C4C=C)C(C)=C3CCC(=O)O)c(CCC(=O)O)c2C)NC1=O` [biliverdin], the “X-ray crystallography (100 K, 2.65 A; XFEL 293 K, 3.15 A)” value [1] is reported as “the BV A ring tilts with the covalent bond to the Cys18 S atom”, the “UV-vis absorption spectroscopy of bilin-bound protein” value [2] is reported as “the dark-adapted spectrum of the Y262F T289H double mutant” and the “X-ray crystallography (100 K, 2.25 A)” value [3] is reported as “electron density that appeared in the chromophore binding pocket was interpreted by a biliverdin linked to Cys18”. For the same compound, the “UV-vis absorption spectroscopy of bilin-bound protein” value [4] was “The mutation of Asp208 to threonine (D208T) abolishes the formation of a stable E-configuration” and the “X-ray crystallography (100 K, 2.25 A)” value (SaBphP1-CBD (PAS-GAF)) was “The BV chromophore is bound to Cys18 close to the N-terminus”.
